Reference: patent US6436978B1, “Guanidinylamino heterocycle compounds useful as α-2 adrenoceptor agonists” (The Procter & Gamble Co., priority 1996, dated 2002)

How the values were obtained:
patient with glaucoma = test: Topical ophthalmic composition given to a patient with glaucoma, intraocular pressure; format: in vivo, human; conditions: Example G topical ophthalmic composition 0.10 % w/v, one-tenth of a mL into each eye
Procedure: One-tenth of a mL of the composition is administered directly into each eye of a patient with glaucoma.

patient with migraine = test: Oral tablet given to a patient with migraine; format: in vivo, human; conditions: Example K oral tablet, 4 mg per tablet, one tablet swallowed
Source text: One tablet is swallowed by a patient with migraine.

[1] = tested on: patient with nasal congestion; test: Composition given to a patient with nasal congestion; format: in vivo, human
Procedure: One tablet is swallowed by a patient with nasal congestion.
One tablet is chewed and swallowed by a patient with nasal congestion.
One tablet is placed under the tongue of a patient with nasal congestion and allowed to dissolve.
One-tenth of a mL of the composition is sprayed from a pump actuator into each nostril of a patient with nasal congestion.
One-fifth of a mL of the composition is applied as drops from a dropper into each nostril of a patient with nasal congestion.
One 15 mL dose of the alcohol-free liquid medication is swallowed by a patient with nasal congestion.

[2] = tested on: human subject suffering from septic or cardiogenic shock; test: Intravenous solution given to a human subject suffering from septic or cardiogenic shock; format: in vivo; conditions: Example T solution 10 mg/ml carrier, approximately 2.0 ml intravenously
Procedure: The above ingredients are mixed, forming a solution. Approximately 2.0 ml of the solution is administered, intravenously, to a human subject suffering from septic or cardiogenic shock.

patient with asthma = test: Inhalation aerosol given to a patient with asthma; format: in vivo, human; conditions: Example F inhalation aerosol 5.0 % w/v, two puffs from a metered-dose inhaler
Source text: Two-puffs of the aerosol composition is inhaled from a metered-dose inhaler by a patient with asthma.

[3] = tested on: patient with nasal congestion and runny nose due to allergic rhinitis; test: Oral liquid given to a patient with nasal congestion and runny nose due to allergic rhinitis; format: in vivo, human; conditions: Example H oral liquid, 15 mg with chlorpheniramine maleate 4 mg per 15 mL dose, one dose swallowed
Procedure: One 15 mL dose of the liquid composition is swallowed by a patient with nasal congestion and runny nose due to allergic rhinitis.

Compound	intraocular pressure (patient with glaucoma)	pain and aura of migraine (patient with migraine)	nasal congestion ([1]; Example B chewable tablet, 15.0 mg per tablet, one tablet chewed and swallowed)	nasal congestion ([1]; Example D intranasal solution 0.20 % w/v, one-tenth of a mL sprayed into each nostril)	nasal congestion ([1]; Example E intranasal gel 0.10 % w/v, one-fifth of a mL as drops into each nostril)	symptoms of septic or cardiogenic shock [2]	asthmatic condition (patient with asthma)	congestion and runny nose [3]	nasal congestion ([1]; Example A oral tablet, 20.0 mg per tablet, one tablet swallowed)	nasal congestion ([1]; Example C sublingual tablet, 2.00 mg per tablet, one tablet under the tongue)	nasal congestion ([1]; Example J alcohol-free oral liquid, 30 mg per 15 mL dose, one dose swallowed)
Cc1c(NNC(=N)N)ccc2cccnc12 [Example 1, [(8-Methylquinolin-7-yl)amino]guanidine]	substantially reduced	substantially diminished	substantially reduced	substantially diminished	substantially reduced	symptoms subside	–	–	–	–	–
[(4-Methylbenzimidazol-5-yl)amino]guanidine [Example 2]	–	–	–	–	–	–	effectively relieved	effectively reduced	substantially diminished	rapidly and substantially diminished	substantially diminished
